Measured values: the supplement of paper PMC10307832

How the values were obtained:
Experiment in all cases: relative viability (nuclei count vs DMSO), 5 days (fraction); higher = more cells survive
XMD14-99 + Palbociclib = compound: CN1CCN(CC1)C2=CC(=C(C=C2)NC3=NC(=C(S3)C(=O)C4=C(C=CC=C4Cl)Cl)N)OC [XMD14-99] + CC(=O)c1c(C)c2cnc(Nc3ccc(N4CCNCC4)cn3)nc2n(C2CCCC2)c1=O [Palbociclib] (partner 0.5 µM)
Outline: (§1)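 Nuclei were stained with Hoechst during a one-step fixation (final 0.05% Triton X-100, 1% formaldehyde, 1 ug/ml Hoechst) carried out 5 days after dosing, then counted on 4× images. The cells, lung cancer lines in 1536-well plates, had been dosed by pin tool the day after seeding with one drug alone or a fixed anchor-drug dose plus five library-drug doses (not always all listed) in √10 steps. Relative viability is the nuclei count in treated wells divided by that in vehicle wells, and each value is the median of duplicate plates.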

XMD14-99 + Pemetrexed = compound: CN1CCN(CC1)C2=CC(=C(C=C2)NC3=NC(=C(S3)C(=O)C4=C(C=CC=C4Cl)Cl)N)OC [XMD14-99] + Nc1nc2[nH]cc(CCc3ccc(C(=O)N[C@@H](CCC(=O)O)C(=O)O)cc3)c2c(=O)[nH]1 [Pemetrexed] (partner 0.2 µM)
Outline: as §1

AZD1208 + Decitabine = compound: N[C@@H]1CCCN(c2c(/C=C3\SC(=O)NC3=O)cccc2-c2ccccc2)C1 [AZD1208] + Nc1ncn([C@H]2C[C@H](O)[C@@H](CO)O2)c(=O)n1 [Decitabine] (partner 2 µM)
Outline: as §1

AZD1208 + Alpelisib = compound: N[C@@H]1CCCN(c2c(/C=C3\SC(=O)NC3=O)cccc2-c2ccccc2)C1 [AZD1208] + Cc1nc(NC(=O)N2CCC[C@H]2C(N)=O)sc1-c1ccnc(C(C)(C)C(F)(F)F)c1 [Alpelisib] (partner 2 µM)
Outline: as §1

Cell Line | relative viability (XMD14-99 + Palbociclib; first compound 0.08 µM) | relative viability (XMD14-99 + Palbociclib; first compound 0.8 µM) | relative viability (XMD14-99 + Palbociclib; first compound 2.53 µM) | relative viability (XMD14-99 + Palbociclib; first compound 8 µM) | relative viability (XMD14-99 + Pemetrexed; first compound 0.08 µM) | relative viability (XMD14-99 + Pemetrexed; first compound 0.8 µM) | relative viability (XMD14-99 + Pemetrexed; first compound 2.53 µM) | relative viability (XMD14-99 + Pemetrexed; first compound 8 µM) | relative viability (AZD1208 + Decitabine; first compound 0.08 µM) | relative viability (AZD1208 + Decitabine; first compound 0.253 µM) | relative viability (AZD1208 + Decitabine; first compound 0.8 µM) | relative viability (AZD1208 + Decitabine; first compound 2.53 µM) | relative viability (AZD1208 + Decitabine; first compound 8 µM) | relative viability (AZD1208 + Alpelisib; first compound 0.08 µM) | relative viability (AZD1208 + Alpelisib; first compound 0.253 µM) | relative viability (AZD1208 + Alpelisib; first compound 0.8 µM) | relative viability (AZD1208 + Alpelisib; first compound 2.53 µM) | relative viability (AZD1208 + Alpelisib; first compound 8 µM)
NCI-H1975 | 0.597 | 0.614 | 0.618 | 0.448 | 0.293 | 0.307 | 0.333 | 0.283 | 0.356 | 0.412 | 0.357 | 0.377 | 0.284 | 0.603 | 0.64 | 0.617 | 0.63 | 0.607
CAL-12T | 0.532 | 0.43 | 0.485 | 0.413 | 1.2 | 1.28 | 1.12 | 0.885 | – | – | – | – | – | 1.12 | 1.22 | 1.13 | 1.1 | 0.851
HCC-44 | 1.03 | 0.969 | 1 | 1.01 | 0.648 | 0.65 | 0.63 | 0.627 | 0.98 | 0.907 | 0.939 | 0.995 | 0.916 | 0.722 | 0.854 | 0.744 | 0.695 | 0.626
EKVX | 0.358 | 0.403 | 0.377 | 0.361 | 0.366 | 0.338 | 0.328 | 0.362 | 0.286 | 0.356 | 0.327 | 0.351 | 0.344 | 0.866 | 0.936 | 0.775 | 0.802 | 0.71
NCI-H1651 | 0.535 | 0.535 | 0.535 | 0.522 | 0.605 | 0.564 | 0.585 | 0.477 | 0.665 | 0.642 | – | 0.613 | 0.554 | 0.848 | 0.921 | 0.785 | 0.732 | 0.677
NCI-H1944 | 0.32 | 0.36 | 0.328 | 0.28 | 0.595 | 0.605 | 0.602 | 0.481 | 0.42 | 0.437 | 0.467 | 0.355 | 0.372 | 0.864 | 0.762 | 0.715 | 0.726 | 0.6
NCI-H1703 | – | – | – | – | – | – | – | – | – | – | – | – | – | 0.338 | 0.302 | 0.301 | 0.31 | 0.287
Calu-6 | – | – | – | – | – | – | – | – | – | – | – | – | – | 0.993 | 1.03 | 0.889 | 0.918 | 0.818
EBC-1 | – | – | – | – | – | – | – | – | – | – | – | – | – | 0.783 | 0.806 | 0.885 | 0.75 | 0.817
A-427 | 0.515 | 0.554 | 0.488 | 0.452 | 0.952 | 0.946 | 0.892 | 0.645 | 0.541 | 0.568 | 0.528 | 0.508 | 0.448 | 1.02 | 1.07 | 1.02 | 1.02 | 0.97
NCI-H2405 | 0.512 | 0.578 | 0.557 | 0.503 | 1.02 | 1.13 | 1 | 0.654 | 0.683 | 0.752 | 0.695 | 0.719 | 0.653 | 0.692 | 0.727 | 0.637 | 0.728 | 0.723
NCI-H1355 | 0.393 | 0.419 | 0.383 | 0.331 | 1.09 | 1.06 | 0.945 | 0.896 | 0.331 | 0.327 | 0.335 | 0.341 | 0.33 | 0.826 | 0.832 | 0.704 | 0.771 | 0.64
NCI-H358 | 0.0998 | 0.147 | 0.132 | 0.124 | 0.16 | 0.142 | 0.178 | 0.146 | 0.206 | 0.188 | 0.185 | 0.207 | 0.197 | 0.64 | 0.709 | 0.546 | 0.592 | 0.569
RERF-LC-KJ | 1.01 | 1.04 | 0.952 | 0.9 | 0.469 | 0.506 | 0.452 | 0.449 | 0.66 | 0.674 | 0.632 | 0.586 | 0.555 | 0.708 | 0.762 | 0.703 | 0.652 | 0.607
NCI-H23 | 0.519 | 0.541 | 0.529 | 0.454 | 0.687 | 0.783 | 0.745 | 0.494 | 0.292 | 0.285 | 0.308 | 0.329 | 0.275 | 0.658 | 0.58 | 0.493 | 0.564 | 0.561
HOP-62 | 0.435 | 0.41 | 0.538 | 0.443 | 0.368 | 0.364 | 0.36 | 0.331 | 0.231 | 0.212 | 0.22 | 0.254 | 0.24 | 1.04 | 0.919 | 0.82 | 0.764 | 0.896
HARA | 0.291 | 0.25 | 0.281 | 0.204 | 0.21 | 0.29 | 0.265 | 0.237 | 0.767 | 0.578 | 0.486 | 0.536 | 0.545 | 0.747 | 0.794 | 0.671 | 0.754 | 0.747
PC-14 | 0.567 | 0.527 | 0.5 | 0.24 | 0.148 | 0.138 | 0.115 | 0.131 | 0.254 | 0.209 | 0.224 | 0.203 | 0.207 | 0.928 | 1 | 0.956 | 0.917 | 0.931
NCI-H1755 | 0.477 | 0.458 | 0.474 | 0.476 | 0.419 | 0.378 | 0.37 | 0.391 | 0.695 | 0.675 | 0.723 | 0.713 | 0.625 | 0.933 | 1.02 | 0.858 | 0.859 | 0.741
HCC-78 | 0.487 | 0.54 | 0.557 | 0.445 | 0.852 | 0.899 | 0.943 | 0.934 | 0.685 | 0.629 | 0.646 | 0.704 | 0.697 | 0.329 | 0.339 | 0.27 | 0.257 | 0.266
IA-LM | – | – | – | – | – | – | – | – | – | – | – | – | – | 0.83 | 0.617 | 0.826 | 0.837 | 0.569
